Source: patent US9713614B2, “Combination of HMG-CoA reductase inhibitors with phosphodiesterase 4 inhibitors for the treatment of inflammatory pulmonary diseases” (TAKEDA GMBH, priority 2006, dated 2017)

Test system: LPS-induced systemic TNFα release
Experiment: Inhibition of LPS-induced systemic TNFα release in rats
Format: in vivo, rat
Conditions: for ED50: Rattus norvegicus, male Sprague Dawley rats, by gavage 1 h before i.v. LPS 0.1 mg/kg, plasma TNFα by ELISA 90 min after LPS, from dose-response curves
Description: Pharmacology: Synergistic Inhibition of LPS-Induced Systemic TNFα Release in Rats by a Combination of ATORVASTATIN Hemi-Calcium Sesqui-Hydrate and 2-{4-[(4aS,8aR)-4-(3,4-dimethoxyphenyl)-1-oxo-4a,5,8,8a-tetrahydro-1H-phthalazin-2-yl]-piperidin-1-yl}-acetamide (COMPOUND A) Animals:
male Sprague Dawley rats 200-280 g
ATORVASTATIN hemi-calcium sesqui-hydrate (Alexis Pharmaceuticals, San Diego, Calif., USA) and COMPOUND A (ALTANA Pharma, Konstanz, Germany).
Drugs were administered by gavage as a methocel/polyethylenglycol 400 suspension 1 h before intravenous administration of LPS (0.1 mg/kg). Euthanasia was induced 90 minutes later by injecting pentobarbital (48 mg/kg) and heparin (1,000 U/kg). Heparinized blood was obtained by heart puncture. Blood was centrifuged (21,000×g, 4° C., 15 min), and plasma samples were kept frozen at −80° C. until determination of TNFα levels by a commercially available ELISA kit (Quantakine®M, Rat TNFα immunoassay, R&D, MN, USA).
All data are given as mean±SEM. Significances were calculated on the primary TNFα concentrations in comparison with the LPS-challenged control group using ANOVA with subsequent Dunnett's Test provided by GraphPadPrism software package. Differences with p<0.05 were considered significant. Dose-response curves were calculated by non-linear regression analysis within fixed limits of 0 to 100% inhibition. 50% inhibitory dose (ED50) values were derived from dose-response curves.

Compound | decrease of LPS-induced TNFα versus placebo (ATORVASTATIN hemi-calcium sesqui-hydrate alone 0.5 mg/kg by gavage, rats, no significant effect) [%] | ED50 [mg/kg] | increase of LPS-induced TNFα versus placebo (COMPOUND A alone 0.013 mg/kg by gavage, rats, no significant effect) [%]
CC(C)c1c(C(=O)Nc2ccccc2)c(-c2ccccc2)c(-c2ccc(F)cc2)n1CC[C@@H](O)C[C@H](O)CC(=O)O [ATORVASTATIN hemi-calcium sesqui-hydrate, (3S,5R)-7-[3-(anilinocarbonyl)-5-(4-fluorophenyl)-2-isopropyl-4-phenyl-1H-pyrrol-1-yl]-3,5-dihydroxyheptanoic acid] | 11 | 23 | –
COc1ccc(C2=NN(C3CCN(CC(N)=O)CC3)C(=O)[C@@H]3CC=CC[C@H]23)cc1OC [COMPOUND A, 2-{4-[(4aS,8aR)-4-(3,4-dimethoxyphenyl)-1-oxo-4a,5,8,8a-tetrahydro-1H-phthalazin-2-yl]-piperidin-1-yl}-acetamide] | – | 0.14 | 1
